According to patent publication US9676761B2, “Difluoroethyl-oxazole substituted bridged spiro[2.4]heptane derivatives as ALX receptor agonists” (ACTELION PHARMACEUTICALS LTD, priority 2013, dated 2017):

What was measured:
[1] = Plasma stability assay (stability in serum), human; format: in vitro ADME; conditions: pH 7.4, 37° C., 1 μM compound; for remaining concentration at Tlast: Tlast 6 h
Procedure: (§1) Rat or human serum adjusted at pH 7.4 with lactic acid or ammonium hydroxide, were equilibrated at 37° C. under orbital shaking in an incubator containing 5% CO2. The reaction was initiated by the addition of 1 μM of compounds (1 μl of 1 mM stock solution in DMSO in 999 μl of plasma). At 0.01 h, 0.25 h, 0.5 h, 1 h, 2 h, 4 h and 6 h aliquots (30 μl) were transferred in a 96 well plate containing 90 μl MeOH placed on ice to stop the reaction. After vortexing for 20 min at 1400 rpm on an Eppendorf thermomixer, the plates were centrifuged at 3220 g for 20 min at 4° C. and the supernatants were analyzed with LC-MS/MS. Calibration samples in serum containing 0.1% of dichlorvos (2,2-dichlorovinyl-dimethyl-phosphate) were prepared and analysed in parallel to the incubation samples to allow the quantification. Half lives (T1/2) in hours were then calculated. In addition the remaining concentration of the respective compound after time Tlast relative to the concentration at the beginning has been determined (table 3).

[2] = Plasma protein binding assay (Rapid Equilibrium Dialysis), rat; format: in vitro ADME; conditions: 1 μM, dialysis 4 h at 37° C., pH 7.4
human ALX receptor = molecular target: T1, human ALX receptor (Homo sapiens, UniProt P25090); experiment: FLIPR assay (ALX receptor), intracellular calcium measurements in HEK293-hALXR-Gα16 cells; format: cell-based; conditions: median of n replications, normalized to WKYMVm 10 nM, read-out: EC50 (agonistic activity with respect to the ALX receptor)
T1 construct: expressed in transfected cells; host or cells: HEK293 (HEK293-hALXR-Gα16)
T1 sequence (P25090 1-351): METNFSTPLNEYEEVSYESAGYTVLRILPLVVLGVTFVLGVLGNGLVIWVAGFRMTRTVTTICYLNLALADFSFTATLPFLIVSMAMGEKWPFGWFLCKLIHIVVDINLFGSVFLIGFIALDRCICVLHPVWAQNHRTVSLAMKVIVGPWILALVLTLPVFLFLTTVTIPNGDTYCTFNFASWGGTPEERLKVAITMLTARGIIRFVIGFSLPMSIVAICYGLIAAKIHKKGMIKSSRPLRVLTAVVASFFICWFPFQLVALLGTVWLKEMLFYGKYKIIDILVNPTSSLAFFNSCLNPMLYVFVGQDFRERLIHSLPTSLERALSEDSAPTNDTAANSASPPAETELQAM
Procedure: FLIPR Assay (ALX Receptor)
(§2) Intracellular Calcium Measurements:
(§3) Cells expressing recombinant human ALX receptor and the G-protein Gα16 (HEK293-hALXR-Gα16) were grown to 80% confluency in Growing Medium (GM). Cells were detached from culture dishes with a cell dissociation buffer (Invitrogen, 13151-014), and collected by centrifugation at 1,000 rpm at rt for 5 min in Assay Buffer (AB) (equal parts of Hank's BSS (Gibco, 14065-049) and DMEM without Phenol Red (Gibco, 11880-028)). After 60 min incubation at 37° C. under 5% CO2 in AB supplemented with 1 μM Fluo-4 (AM) (Invitrogen, F14202) and 20 mM HEPES (Gibco, 15630-056), the cells were washed and resuspended in AB. They were then seeded onto 384-well FLIPR assay plates (Greiner, 781091) at 50,000 cells in 70 μl per well and sedimented by centrifugation at 1,000 rpm for 1 min. Stock solutions of test compounds were made up at a concentration of 10 mM in DMSO, and serially diluted in AB to concentrations required for activation dose response curves. WKYMVm (Phoenix Peptides) was used as a reference agonist. […] Changes in fluorescence were monitored before and after the addition of test compounds at lex=488 nm and lem=540 nm. […]

human FPR1 receptor = molecular target: T2, human FPR1 receptor (Homo sapiens, UniProt P21462); experiment: FLIPR assay (FPR1 receptor), intracellular calcium measurements in HEK293-hFPR1-Gα16 cells; format: cell-based; conditions: median of n replications, normalized to WKYMVm 10 nM, read-out: EC50 (agonistic activity with respect to the FPR1 receptor)
T2 construct: expressed in transfected cells; host or cells: HEK293 (HEK293-hFPR1-Gα16)
T2 sequence (P21462 1-350): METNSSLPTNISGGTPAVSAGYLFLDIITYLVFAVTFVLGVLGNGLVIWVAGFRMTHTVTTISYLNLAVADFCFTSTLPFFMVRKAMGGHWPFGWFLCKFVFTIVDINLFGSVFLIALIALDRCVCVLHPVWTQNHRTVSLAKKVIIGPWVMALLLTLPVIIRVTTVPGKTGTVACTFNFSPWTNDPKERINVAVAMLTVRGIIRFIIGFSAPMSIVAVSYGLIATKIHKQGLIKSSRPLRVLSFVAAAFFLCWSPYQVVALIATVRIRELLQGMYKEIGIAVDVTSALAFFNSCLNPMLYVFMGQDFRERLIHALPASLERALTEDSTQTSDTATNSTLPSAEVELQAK
Procedure: FLIPR Assay (FPR1 Receptor)
as §2
as §3, with “FPR1” for “ALX”, “(HEK293-hFPR1-Gα16)” for “(HEK293-hALXR-Gα16)”

[3] = Plasma protein binding assay (Rapid Equilibrium Dialysis), human; format: in vitro ADME; conditions: 1 μM, dialysis 4 h at 37° C., pH 7.4
Procedure: Plasma Protein Binding Assay
Compounds were added to human plasma adjusted at pH 7.4 with lactic acid or ammonium hydroxide (final concentration 1 μM) and dialyzed with RED (Rapid Equilibrium Dialysis) devices against Phosphate Buffered Saline (0.1M sodium Phosphate and 0.15 M sodium chloride) 0.1 M pH 7.4 for 4 h at 37° C. in an incubator containing 5% CO2. Following dialysis, an aliquot of plasma and buffer were diluted with an equal volume of the opposite matrix to nullify the matrix effect and a calibration was prepared in the mixed matrix. Aliquots of samples and calibrations (30 μl) were transferred in a 96 well plate containing 90 μl MeOH to precipitate the proteins. After vortexing for 20 min at 1400 rpm on an Eppendorf thermomixer, the plates were centrifuged at 3220 g for 20 min at 4° C. and the supernatants were analyzed with LC-MS/MS. Concentrations of analyte were used for the calculation of the fraction bound to plasma. Propranolol [(±)-1-isopropylamino-3-(1-naphthyloxy)-2-propanol], a reference compound, was run in parallel.

[4] = Plasma stability assay (stability in serum), rat; format: in vitro ADME; conditions: pH 7.4, 37° C., 1 μM compound; for remaining concentration at Tlast: Tlast 6 h
Procedure: as §1

(1S,2R,3R,4R)—N^2—((4-(1,1-Difluoroethyl)oxazol-2-yl)methyl)-N^3-(trans-3-fluoropiperidin-4-yl)spiro[bicyclo[2.2.1]heptane-7,1′-cyclopropane]-2,3-dicarboxamide [Example 2]
remaining concentration at Tlast [1]: >100% | T1/2 [1]: >6 h | Plasma protein binding [2]: 47.7% | EC50 (human ALX receptor): 3.6 nM | EC50 (human FPR1 receptor): > 7000 nM | Plasma protein binding [3]: 63.8% | remaining concentration at Tlast [4]: >100% | T1/2 [4]: >6 h

(1S,2R,3R,4R)—N^2—((4-(1,1-Difluoroethyl)oxazol-2-yl)methyl)-N^3-(trans-3-fluoropiperidin-4-yl)spiro[bicyclo[2.2.1]heptane-7,1′-cyclopropane]-2,3-dicarboxamide [Example 1]
remaining concentration at Tlast [1]: 97% | T1/2 [1]: >6 h | Plasma protein binding [2]: 50.7% | EC50 (human ALX receptor): 6.6 nM | EC50 (human FPR1 receptor): > 6000 nM | Plasma protein binding [3]: 54.8% | remaining concentration at Tlast [4]: >100% | T1/2 [4]: >6 h
